Eight compounds from ChEMBL document CHEMBL1123539, “[p-[(Thienylcarbonyl)amino]phenoxy]propanolamines derivatives as diuretic and beta-adrenergic receptor blocking agents” (1986) can be followed below.

Molecules are shown by their SMILES.

The target of test [1] is Beta-1 adrenergic receptor (Homo sapiens) (UniProt P08588). The settings on record: Canis lupus familiaris.
Description: Compound was tested for beta-1 adrenergic receptor blocking activity in dogs
For test [2], the system named is Rattus norvegicus. The test is described as follows: Compound was tested for oral salidiuretic activity (control/drug treatment value) in rats expressed in Na+, mequiv/6 h at a dose of 128 mg/kg; 0.205/0.712. Type of test: functional, Urine.
Test [3] concerns Rattus norvegicus. Briefly: Compound was tested for oral salidiuretic activity (control/drug treatment value) in rats expressed as urinary output. at a dose of 128 mg/kg; 7.33/11.50. Type of test: functional, Urine.
The test system of test [4] is Rattus norvegicus. The test is described as follows: Compound was tested for oral salidiuretic activity (control/drug treatment value) in rats expressed as urinary output. at a dose of 64 mg/kg; 7.33/10. Type of test: functional, Urine.
In test [5] the test system is Rattus norvegicus. Briefly: Compound was tested for oral salidiuretic activity (control/drug treatment value) in rats expressed in Na+, mequiv/6 h at a dose of 64 mg/kg; 0.205/0.514. Type of test: functional, Urine.
The subject of test [6] is Rattus norvegicus. Briefly: Compound was tested for oral salidiuretic activity (control/drug treatment value) in rats expressed in Na+, mequiv/6 hr at a dose of 16 mg/kg; 0.205/0.350. Type of test: functional, Urine.
Test [7] deals with Rattus norvegicus. The test is described as follows: Compound was tested for oral salidiuretic activity (control/drug treatment value) in rats expressed as urinary output. at a dose of 32 mg/kg; 7.33/9.17. Type of test: functional, Urine.
In test [8] the test system is Rattus norvegicus. Briefly: Compound was tested for oral salidiuretic activity (control/drug treatment value) in rats expressed as urinary output. at a dose of 16 mg/kg; 7.33/9.75. Type of test: functional, Urine.
Test [9] has as its system Rattus norvegicus. Briefly: Compound was tested for oral salidiuretic activity (control/drug treatment value) in rats expressed in Na+, mequiv/6 hr at a dose of 32 mg/kg; 0.205/0.358. Type of test: functional, Urine.
Test [10] concerns the target Beta-2 adrenergic receptor (Canis lupus familiaris) (UniProt P54833).
Description: The compound was tested for beta-2 adrenergic receptor blocking activity in dogs
For test [11], the system named is Rattus norvegicus. The test is described as follows: Compound was tested for oral salidiuretic activity (control/drug treatment value) in rats expressed as urinary output. at a dose of 128 mg/kg; 8.42/6.75. Type of test: functional, Urine.
The test system of test [12] is Rattus norvegicus. The test is described as follows: Compound was tested for oral salidiuretic activity (control/drug treatment value) in rats expressed in Na+, mequiv/6 hr at a dose of 128 mg/kg; 0.186/0.243. Type of test: functional, Urine.
Test [13] has as its system Rattus norvegicus. Briefly: Compound was tested for oral salidiuretic activity (control/drug treatment value) in rats expressed in Na+, mequiv/6 hr at a dose of 128 mg/kg; 0.201/1.197. Type of test: functional, Urine.
For test [14], the system named is Rattus norvegicus. The test is described as follows: Compound was tested for oral salidiuretic activity (control/drug treatment value) in rats expressed as urinary output. at a dose of 128 mg/kg; 7.33/13.83. Type of test: functional, Urine.
Test [15] has as its system Rattus norvegicus. Briefly: Compound was tested for oral salidiuretic activity (control/drug treatment value) in rats expressed as urinary output. at a dose of 128 mg/kg; 8.72/8.15. Type of test: functional, Urine.
In test [16] the test system is Rattus norvegicus. Briefly: Compound was tested for oral salidiuretic activity (control/drug treatment value) in rats expressed in Na+, mequiv/6 hr at a dose of 128 mg/kg; 0.163/0.139. Type of test: functional, Urine.
Test [17] relates to Rattus norvegicus. The test is described as follows: Compound was tested for oral salidiuretic activity (control/drug treatment value) in rats expressed in Na+, mequiv/6 h at a dose of 128 mg/kg; 0.102/0.380. Type of test: functional, Urine.
Test [18] deals with Rattus norvegicus. The test is described as follows: Compound was tested for oral salidiuretic activity (control/drug treatment value) in rats expressed in Na+, mequiv/6 hr at a dose of 128 mg/kg; 0.144/0.470. Type of test: functional, Urine.
Test [19] relates to Rattus norvegicus. Briefly: Compound was tested for oral salidiuretic activity (control/drug treatment value) in rats expressed as urinary output. at a dose of 128 mg/kg; 6.50/8.47. Type of test: functional, Urine.
For test [20], the system named is Rattus norvegicus. The test is described as follows: Compound was tested for oral salidiuretic activity (control/drug treatment value) in rats expressed as urinary output. at a dose of 128 mg/kg; 8.42/10.18. Type of test: functional, Urine.
For test [21], the system named is Rattus norvegicus. Briefly: Compound was tested for oral salidiuretic activity (control/drug treatment value) in rats expressed in Na+, mequiv/6 hr at a dose of 128 mg/kg; 0.186/0.853. Type of test: functional, Urine.
Test [22] relates to Rattus norvegicus. The test is described as follows: Compound was tested for oral salidiuretic activity (control/drug treatment value) in rats expressed as urinary output. at a dose of 32 mg/kg; 7.87/8.10. Type of test: functional, Urine.
In test [23] the test system is Rattus norvegicus. The test is described as follows: Compound was tested for oral salidiuretic activity (control/drug treatment value) in rats expressed in Na+, mequiv/6 hr at a dose of 32 mg/kg; 0.177/0.305. Type of test: functional, Urine.

Sequence of Beta-1 adrenergic receptor (Homo sapiens) (P08588 whole entry, looked up): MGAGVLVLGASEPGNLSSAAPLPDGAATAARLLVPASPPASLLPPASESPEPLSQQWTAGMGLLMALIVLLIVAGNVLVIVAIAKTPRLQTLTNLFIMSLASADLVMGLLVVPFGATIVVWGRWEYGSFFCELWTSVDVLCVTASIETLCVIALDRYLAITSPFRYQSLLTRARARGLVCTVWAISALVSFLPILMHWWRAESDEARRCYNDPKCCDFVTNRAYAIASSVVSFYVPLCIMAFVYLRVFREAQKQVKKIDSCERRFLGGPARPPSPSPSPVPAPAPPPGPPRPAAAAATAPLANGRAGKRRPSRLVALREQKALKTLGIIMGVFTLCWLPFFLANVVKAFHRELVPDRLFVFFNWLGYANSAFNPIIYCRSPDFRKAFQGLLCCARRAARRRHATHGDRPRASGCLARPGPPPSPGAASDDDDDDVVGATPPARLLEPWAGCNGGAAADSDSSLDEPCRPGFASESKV
Sequence of Beta-2 adrenergic receptor (Canis lupus familiaris) (P54833 whole entry, looked up): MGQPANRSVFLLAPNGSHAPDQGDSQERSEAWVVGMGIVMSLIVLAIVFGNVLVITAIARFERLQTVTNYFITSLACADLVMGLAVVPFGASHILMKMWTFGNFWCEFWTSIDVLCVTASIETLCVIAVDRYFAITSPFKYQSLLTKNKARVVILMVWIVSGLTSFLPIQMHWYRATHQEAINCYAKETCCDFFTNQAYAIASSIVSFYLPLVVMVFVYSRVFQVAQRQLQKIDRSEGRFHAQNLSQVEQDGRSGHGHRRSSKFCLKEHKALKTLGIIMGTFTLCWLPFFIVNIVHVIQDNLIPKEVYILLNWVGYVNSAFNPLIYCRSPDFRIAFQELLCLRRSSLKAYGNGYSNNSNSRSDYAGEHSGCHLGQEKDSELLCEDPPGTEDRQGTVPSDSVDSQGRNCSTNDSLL

`CCOC(=O)c1cc(NC(=O)c2cccs2)ccc1OCC(O)CNC(C)C` (stereo not given): the ID50 in test [1] was 0.3 mg/kg; in test [10], 0.45 mg/kg. In addition, the Activity in the test with Rattus norvegicus [2] is 0.205; in the test on Rattus norvegicus [3], 7.33 mL; in the test with Rattus norvegicus [4], 7.33 mL; with Rattus norvegicus [5], 0.205; in the test on Rattus norvegicus [6], 0.205; in the test with Rattus norvegicus [7] it was 7.33 mL. Also, the Activity in the test on Rattus norvegicus [8] amounted to 7.33 mL; in the test with Rattus norvegicus [9], 0.205.

Take `CCOC(=O)c1cc(NC(=O)Cc2ccsc2)ccc1OCC(O)CNC(C)(C)C` (stereo not given): the Activity stood at 8.42 mL in the test on Rattus norvegicus [11] and 0.186 in the test on Rattus norvegicus [12]. For the same compound, the values for the ID50 in [1] and in test [10] were 0.015 mg/kg and 0.38 mg/kg, respectively.

As to `CC(C)OC(=O)c1cc(NC(=O)c2cccs2)ccc1OCC(O)CNC(C)(C)C` (stereo not given), the ID50 was 0.32 mg/kg in test [1] and over 1 mg/kg in test [10]. Also, the Activity in the test with Rattus norvegicus [13] worked out at 0.21; in the test on Rattus norvegicus [14], 7.33 mL.

The compound `CCOC(=O)c1cc(NC(=O)Cc2cccs2)ccc1OCC(O)CNC(C)C` (stereo not given) yielded a treated urinary output in the test with Rattus norvegicus [15] of 8.15 mL. Besides, the Activity in the test on Rattus norvegicus [16] is given as 0.163.

Turning to `CC(C)(C)NCC(O)COc1ccc(NC(=O)c2cccs2)cc1C#N` (stereo not given), the Activity with Rattus norvegicus [17] is given as 0.102. The ID50 in [1] came to 0.022 mg/kg; in test [10], 0.55 mg/kg.

As to `CCOC(=O)c1cc(NC(=O)c2ccsc2)ccc1OCC(O)CNC(C)C` (stereo not given), in the test on Rattus norvegicus [18], the Activity turned out to be 0.144. Moreover, the ID50 is 0.19 mg/kg in [1] and over 1 mg/kg in [10]. Also, the treated urinary output in the test on Rattus norvegicus [19] was determined as 8.47 mL.

With `CCOC(=O)c1cc(NC(=O)c2ccsc2)ccc1OCC(O)CNC(C)(C)C` (stereo not given), the ID50 in test [1] is 0.06 mg/kg; in test [10] it was over 1 mg/kg. The Activity was determined as 8.42 mL in the test on Rattus norvegicus [20] and 0.186 with Rattus norvegicus [21].

Turning to `CC(=O)c1cc(NC(=O)c2cccs2)ccc1OCC(O)CNC(C)(C)C` (stereo not given), the figures for the ID50 in [1] and in test [10] were 0.022 mg/kg and over 1 mg/kg, respectively. For the same compound, the results for the Activity with Rattus norvegicus [22] and with Rattus norvegicus [23] were 7.87 mL and 0.177, respectively.
